In patent publication US12291513B2, “Pyridinium derivatives made by hydrothermal synthesis for use as anolytes in electrochemical cells” (Wisconsin Alumni Research Foundation, priority 2021, dated 2025):

Tests used:
[1] = Electrochemical impedance spectroscopy (EIS); type: physicochemical
Method: CV and EIS experiments were ran using a PalmSens4 potentiostat with the PSTrace software. Electrochemical experiments were performed in 1.0 M NaCl supporting electrolyte using 15 mM of active material at room temperature (18° C.). Formal potentials for the redox couples were estimated by taking the average potential between the cathodic and anodic peak. Diffusional behavior was investigated by varying the scan rate between 10-100 mV·s^−1 for the first electron reduction and 50-200 mV·s^−1 for the second electron reduction, and the diffusion constants of the reduced and oxidized states (D^R and D^O) were determined via the Randles-Sevcik equation assuming ideal reversible behavior (FIG. 12D). Potentiostatic EIS measurements were used for determination of a combined diffusional constant of the reduced and oxidized states (D^EIS) and of the standard electron kinetic rate constant (k^o). These EIS measurements were performed at the formal reduction potential (held for 30 seconds before measurement) in which the concentration of the two redox states at the electrode surface were assumed to be the same and equal to half of the initially prepared redox species concentration.
A glassy carbon working electrode (CH Instruments, 0.0707 cm^2), a saturated calomel reference electrode (SCE, CH Instruments, +0.241 V vs. SHE), and a platinum wire counter electrode were used for both CV and EIS measurements. The working electrode was polished with 1 μm, 0.3 μm, and 0.05 μm alumina slurry successively. All electrodes were rinsed with deionized water in between measurements.
Potentiostatic EIS measurements were taken at the formal potential in which the reduction and oxidation processes are at equilibrium and the concentrations of the reduced and oxidized states can be assumed equal. This permitted simple calculation of the standard kinetic rate constant (k^o) via Eqn. 2 where R is the ideal gas constant, T is temperature, n is number of electrons, RCT is the charge-transfer resistance, F is Faraday's constant, A is the electrode surface area in cm^2, and C is the concentration of either the oxidized or reduced form at the electrode surface in mole cm^−3 (which is assumed to be half of the initially prepared redox species concentration, C═C^O═C^R=0.5 Cinitial).
A combined diffusion coefficient of the reduced and oxidized state (D^EIS) can also be determined using Eqn. 3, where σ is the Warburg diffusional impedance variable and all other variables have the previously defined meaning.
RCT and σ can be determined by fitting the impedance spectrum to the ideal Randles equivalent circuit for a 3-electrode system where Ru is the uncompensated resistance between the working and reference electrode, RCT is the charge transfer resistance between the working electrode and the redox species, WD is the Warburg diffusional element, and CPE is the constant phase element that represents capacitive behavior of the working electrode.
The raw data was fitted based on this equivalent circuit using the Z-Fitting tool on the PSTrace software and with the Levenberg-Marquardt algorithm across the entire measured frequency range. For the second redox state, D2^EIS were 3.6×10^−6 cm^2·s^−1 and 3.8×10^−6 cm^2·s^−1 and k2^o were 0.13 cm·s^−1 and 0.23 cm·s^−1 for Dex-Vi and BTMAP-Vi, respectively.

[2] = Full RFB cell cycling, anolyte-limiting, BTMAP-Fc catholyte; settings: for capacity decay in RFB cycling: anolyte-limiting
Method: The RFB measurements were carried out in a custom-made zero-gap device previously reported by Li et al. (Li, W. et al., Chem 2018, 4 (11), 2644-2657; and Li, W. et al., Adv. Energy Mater. 2019, 9 (31), 1900918.) Both symmetric flow cell and RFB full cell measurements were conducted using a Bio-Logic SP-200 potentiostat at room temperature (˜20° C.). In symmetric cells, 0.1 M of active species in 1 M NaCl (pre-charged to 50% SOC of the first electron reduction using FcNCl as the counter cathode in bulk electrolysis) was utilized on both sides with the capacity limiting side (CLS) consisting of 5 mL of solution and the non-capacity limiting side (NCLS) consisting of 10 mL of solution separated by a Selemion AMV anion-exchange membrane (Asahi Glass Co.). The neat Dex-Vi full RFB cell cycling was performed using the product from the Dex-Vi synthesis directly without any purification. The neat product was diluted to roughly 0.1 M to pair with a 0.2 M BTMAP-Fc counter catholyte in excess capacity separated by an AMV membrane. Both the anolyte and catholyte were 5 mL in total volume with 0.5 M NaCl supporting electrolyte. The first electron high concentration Dex-Vi RFB full cell cycling was performed using 5 mL of 1.5 M Dex-Vi as the anolyte and 10 mL 0.75 M BTMAP-Fc as the catholyte, both of which were prepared in pure water without any supporting salt, with a DSV anion-exchange membrane. The second-electron high concentration full cell cycling was performed using 5 mL of 1.5 M Dex-Vi in water as the anolyte, 20 mL of 0.75 M BTMAP-Fc in water as the catholyte, and a DSV anion-exchange membrane. Rate performance was investigated using 0.1 M Dex-Vi anolyte and 0.2 M BTMAP-Fc catholyte both in 1 M NaCl with DSV anion-exchange membrane.
Graphite plates (⅛-inch thickness, MWI Inc.) with a 20×20×1.2 mm pocket were used as current collectors for RFB devices. 4 cm^2 graphite felt electrodes (GFD 3 EA, […]®) were pre-treated at 400° C. in air for 6 hr before being used on both sides of the cell. 25×25 mm Selemion AMV or DSV was presoaked in 1.0 M NaCl for more than 24 hr before it was used as an anion-exchange membrane. The cell was assembled with four pieces of die cut PTFE sheets (0.04-inch thickness) as gaskets and tightened with eight #10-24 bolts. The electrolytes were pumped through the flow channels by a peristaltic pump (Cole-Parmer Masterflex L/S) via PharMed BPT tubing. The electrolyte flow rate was controlled at 20 mL·min^−1 for all RFB measurements. 10 mL custom made glass vials with two 4 mm OD electrolyte inlet/out arms were used as electrolyte reservoirs. […]

Structure (SMILES): C[N+](C)(C)CC(O)C[n+]1ccc(-c2cc[n+](CC(O)C[N+](C)(C)C)cc2)cc1 (stereo not drawn) [Dex-Vi, bis(3-trimethylammonio-2-hydroxy)propyl viologen tetrachloride]
- EIS D ([1]; Example 2): 3.516E−06 cm^2/s
- EIS i^0 ([1]; Example 2): 6.57E−04 A
- EIS k^0 ([1]; Example 2): 0.0128 cm/s
- k1^0 ([1]; Table 1): 0.05 cm/s
- combined diffusion coefficient (D1^EIS) ([1]; first reduction): 3.9×10^−6 cm^2·s^−1
- standard rate constant (k1^0) ([1]; first reduction): 0.05 cm/s
- D2^EIS ([1]; second redox state): 3.6×10^−6 cm^2·s^−1
- k2^o ([1]; second redox state): 0.13 cm/s
- capacity decay in RFB cycling ([2]; 0.1 M, two weeks (1,200+ cycles)): no observable decay
- capacity decay in RFB cycling ([2]; 1.5 M, one month continual cycling): no discernable decay
- Anolyte-limiting RFB Stability ([2]; Table 1): ~0% decay/year
- RFB Viologen Molarity (1e^−) ([2]; Table 1): 1.5
